# Reference: patent publication US8871756B2 (Hoffmann-La Roche Inc., priority 2011, dated 2014)
# Counter-ions that a name gives are not always drawn.
# Columns and labels:
# RSV Long strain = test: Viral cytopathic effect (CPE) assay, anti-RSV activity; format: cell-based, Respiratory Syncytial Virus; settings: human respiratory syncytial virus, 144 h, RSV Long strain (ATCC); cell viability after 6 days, Cell Counting kit-8
# Method in brief: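 EC50 was derived from CCK-8 viability at 450/630 nm measured 6 days post-infection. Infection used enough RSV Long strain for approximately 80–90% cytopathic effect, in the presence of half-log serially diluted compound. Cells were plated the day before at 6×10^3 per well in DMEM/10% FBS.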
# RSV = settings: Phase III clinical trials; cited from earlier work
# RSV infection = settings: selected infants; intramuscularly at 15 mg/kg once a month for the duration of RSV season; cited from earlier work
# [1] = tested on: established RSV infection; settings: in vivo; cited from earlier work
EC50 (RSV Long strain) [µM],Compound,further results
3.14,"CN(C)C(=O)c1ccc2c(c1)CCCN(c1cc(NCCN)c3cc(Cl)ccc3n1)C2 [Example 123, 2-{4-[(2-Aminoethyl)amino]-6-chloroquinolin-2-yl}-N,N-dimethyl-2,3,4,5-tetrahydro-1H-2-benzazepine-7-carboxamide]",–
6.1,"NCCNc1cc(N2Cc3ccc(Br)cc3CCC2=O)nc2ccccc12 [Example 124, 2-{4-[(2-Aminoethyl)amino]quinolin-2-yl}-7-bromo-1,2,4,5-tetrahydro-3H-2-benz azepin-3-one]",–
2.52,"N=C(N)NCCNc1cc(N2CCCc3ccccc3C2)nc2ccccc12 [Example 125, 1-(2-{[2-(1,3,4,5-Tetrahydro-2H-2-benzazepin-2-yl)quinolin-4-yl]amino}ethyl)guanidine trifluoroacetate]",–
0.79,"NC1=NCC(CNc2cc(N3CCCc4ccccc4C3)nc3ccccc23)O1 (centres unmarked) [Example 126-1, N-[(2-Amino-4,5-dihydro-1,3-oxazol-5-yl)methyl]-2-(1,3,4,5-tetrahydro-2H-2-benzazepin-2-yl)quinolin-4-amine trifluoroacetate]",–
0.638,"NC1=NCC(CNc2cc(N3CCCc4ccccc4C3)nc3ccc(Cl)cc23)O1 (centres unmarked) [Example 126-2, N-[(2-Amino-4,5-dihydro-1,3-oxazol-5-yl)methyl]-6-chloro-2-(1,3,4,5-tetrahydro-2H-2-benzazepin-2-yl)quinolin-4-amine]",–
6.25,"NCC(=O)Nc1cc(N2CCCc3ccccc3C2)nc2ccccc12 [Example 127, N-[2-(1,3,4,5-Tetrahydro-2H-2-benzazepin-2-yl)quinolin-4-yl]glycinamide]",–
7.17,"NCCCc1cc(N2CCCc3ccccc3C2)nc2ccccc12 [Example 128, 3-[2-(1,3,4,5-Tetrahydro-2H-2-benzazepin-2-yl)quinolin-4-yl]propan-1-amine]",–
7.88,"OCc1cc(N2CCCc3ccccc3C2)nc2ccccc12 [Example 129, [2-(1,3,4,5-Tetrahydro-2H-2-benzazepin-2-yl)quinolin-4-yl]methanol]",–
6.84,"Clc1ccc2nc(N3CCCc4ccccc4C3)ccc2c1 [Example 130-1, 2-(6-Chloroquinolin-2-yl)-2,3,4,5-tetrahydro-1H-2-benzazepine]",–
7.27,"OCC(O)Cc1cc(N2CCCc3ccccc3C2)nc2ccc(Cl)cc12 (centres unmarked) [Example 130-2, 3-[6-Chloro-2-(1,3,4,5-tetrahydro-2H-2-benzazepin-2-yl)quinolin-4-yl]propane-1,2-diol]",–
2.52,"NC1=N[C@@H](CCc2cc(N3CCCc4ccccc4C3)nc3ccccc23)CO1 [Example 131, (4S)-4-{2-[2-(1,3,4,5-Tetrahydro-2H-2-benzazepin-2-yl)quinolin-4-yl]ethyl}-4,5-dihydro-1,3-oxazol-2-amine]",–
7.81,"NCCNS(=O)(=O)c1cc(N2CCCc3ccccc3C2)nc2ccccc12 [Example 132, N-(2-Aminoethyl)-2-(1,3,4,5-tetrahydro-2H-2-benzazepin-2-yl)quinoline-4-sulfonamide trifluoroacetate]",–
0.31,"Cc1ccc2nc(N3CC(=O)Nc4ccccc4C3)cc(NCCN)c2c1 [Example 133-1, 4-{4-[(2-Aminoethyl)amino]-6-methylquinolin-2-yl}-1,3,4,5-tetrahydro-2H-1,4-benzodiazepin-2-one]",–
0.186,"Cc1ccc2nc(N3CCNc4ccccc4C3)cc(NCCN)c2c1 [Example 133-2, N-[6-Methyl-2-(1,2,3,5-tetrahydro-4H-1,4-benzodiazepin-4-yl)quinolin-4-yl]ethane-1,2-diamine]",–
0.25,"NCCNc1cc(N2CCOc3ccccc3C2)nc2ccccc12 [Example 134, N-[2-(2,3-Dihydro-1,4-benzoxazepin-4(5H)-yl)quinolin-4-yl]ethane-1,2-diamine]",–
0.006,"Cc1ccc2nc(N3CCS(=O)(=O)c4ccccc4C3)nc(NCC3(N)CC3)c2c1 [Example 135-1, N-[(1-Aminocyclopropyl)methyl]-2-(1,1-dioxido-2,3-dihydro-1,4-benzothiazepin-4(5H)-yl)-6-methylquinazolin-4-amine]",–
0.018,"Cc1ccc2nc(N3CCS(=O)(=O)c4ccccc4C3)nc(NC3CCNC3)c2c1 (centres unmarked) [Example 135-2, 2-(1,1-Dioxido-2,3-dihydro-1,4-benzothiazepin-4(5H)-yl)-6-methyl-N-(pyrrolidin-3-yl)quinazolin-4-amine]",–
–,motavizumab,benefit over palivizumab (RSV): failed to show additional benefit over palivizumab
–,palivizumab,reduction of hospitalization rate caused by RSV infection (RSV infection): 45-55%; efficacy in the treatment of established RSV infection [1]: not effective
